Experimental data taken from BindingDB's records for doi:10.1124/jpet.105.087809 (Universit&Aagrove, 2005).

Legend:
[1] = biological target: T1, Alpha-1A adrenergic receptor (Homo sapiens, UniProt P35348)
T1 sequence (P35348 whole entry): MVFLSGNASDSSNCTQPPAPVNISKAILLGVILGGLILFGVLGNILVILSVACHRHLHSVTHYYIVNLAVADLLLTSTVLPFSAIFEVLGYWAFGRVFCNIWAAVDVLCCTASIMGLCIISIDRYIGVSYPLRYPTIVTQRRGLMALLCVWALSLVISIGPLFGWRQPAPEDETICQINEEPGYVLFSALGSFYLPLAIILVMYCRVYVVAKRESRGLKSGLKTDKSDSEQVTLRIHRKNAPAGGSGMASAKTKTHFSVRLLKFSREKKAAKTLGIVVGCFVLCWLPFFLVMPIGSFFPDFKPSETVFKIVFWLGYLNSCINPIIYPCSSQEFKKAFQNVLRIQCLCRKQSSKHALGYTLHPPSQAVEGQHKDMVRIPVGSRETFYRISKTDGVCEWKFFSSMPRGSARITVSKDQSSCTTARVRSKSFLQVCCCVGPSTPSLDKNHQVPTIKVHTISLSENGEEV

D(2) dopamine receptor = D(2) dopamine receptor (Rattus norvegicus, UniProt P61169)
Chain of D(2) dopamine receptor (P61169 whole entry): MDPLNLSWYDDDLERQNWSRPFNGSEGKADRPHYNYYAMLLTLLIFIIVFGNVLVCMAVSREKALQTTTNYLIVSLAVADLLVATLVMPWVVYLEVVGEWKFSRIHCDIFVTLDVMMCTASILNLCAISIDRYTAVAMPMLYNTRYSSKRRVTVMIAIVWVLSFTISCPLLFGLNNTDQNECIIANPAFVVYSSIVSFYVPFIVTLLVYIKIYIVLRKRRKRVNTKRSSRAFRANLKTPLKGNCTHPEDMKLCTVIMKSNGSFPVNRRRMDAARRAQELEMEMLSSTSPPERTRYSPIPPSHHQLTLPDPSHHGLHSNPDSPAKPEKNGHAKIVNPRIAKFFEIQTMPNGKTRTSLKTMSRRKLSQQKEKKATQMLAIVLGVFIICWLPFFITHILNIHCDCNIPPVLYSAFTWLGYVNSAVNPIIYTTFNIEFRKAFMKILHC

[2] = biological target: T2, Alpha-1D adrenergic receptor (Homo sapiens, UniProt P25100)
T2 sequence (P25100 whole entry): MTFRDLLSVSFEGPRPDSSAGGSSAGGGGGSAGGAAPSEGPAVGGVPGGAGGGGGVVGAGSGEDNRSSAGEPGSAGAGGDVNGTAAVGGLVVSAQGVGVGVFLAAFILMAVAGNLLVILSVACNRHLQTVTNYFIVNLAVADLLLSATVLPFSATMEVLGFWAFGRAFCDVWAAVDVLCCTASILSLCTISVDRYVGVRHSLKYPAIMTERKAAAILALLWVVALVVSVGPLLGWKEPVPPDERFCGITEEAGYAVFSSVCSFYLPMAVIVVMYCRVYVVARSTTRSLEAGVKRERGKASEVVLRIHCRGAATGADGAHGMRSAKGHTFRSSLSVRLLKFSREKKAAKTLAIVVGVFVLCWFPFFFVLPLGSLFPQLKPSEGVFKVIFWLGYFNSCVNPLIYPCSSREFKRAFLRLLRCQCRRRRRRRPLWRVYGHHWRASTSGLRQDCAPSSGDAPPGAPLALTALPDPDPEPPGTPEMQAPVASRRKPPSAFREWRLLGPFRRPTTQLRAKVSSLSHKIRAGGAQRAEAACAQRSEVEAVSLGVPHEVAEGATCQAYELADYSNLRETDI

[3] = biological target: T3, Alpha-1B adrenergic receptor (Homo sapiens, UniProt P35368)
T3 sequence (P35368 whole entry): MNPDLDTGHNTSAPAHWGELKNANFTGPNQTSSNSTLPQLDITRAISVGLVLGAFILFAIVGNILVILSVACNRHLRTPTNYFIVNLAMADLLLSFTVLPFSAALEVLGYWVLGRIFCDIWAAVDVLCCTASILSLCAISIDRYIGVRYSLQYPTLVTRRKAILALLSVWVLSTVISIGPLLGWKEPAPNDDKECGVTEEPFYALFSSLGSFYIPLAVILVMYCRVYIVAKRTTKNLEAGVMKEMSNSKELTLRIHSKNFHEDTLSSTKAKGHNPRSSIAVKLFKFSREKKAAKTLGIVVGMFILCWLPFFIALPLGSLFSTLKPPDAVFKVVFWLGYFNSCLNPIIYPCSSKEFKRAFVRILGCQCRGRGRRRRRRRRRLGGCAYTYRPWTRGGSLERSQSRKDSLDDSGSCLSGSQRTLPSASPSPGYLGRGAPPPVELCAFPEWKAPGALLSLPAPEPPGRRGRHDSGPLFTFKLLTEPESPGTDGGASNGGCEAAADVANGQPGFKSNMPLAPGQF

[4] = biological target: T4, Alpha-2C adrenergic receptor (Rattus norvegicus, UniProt P22086)
T4 sequence (P22086 whole entry): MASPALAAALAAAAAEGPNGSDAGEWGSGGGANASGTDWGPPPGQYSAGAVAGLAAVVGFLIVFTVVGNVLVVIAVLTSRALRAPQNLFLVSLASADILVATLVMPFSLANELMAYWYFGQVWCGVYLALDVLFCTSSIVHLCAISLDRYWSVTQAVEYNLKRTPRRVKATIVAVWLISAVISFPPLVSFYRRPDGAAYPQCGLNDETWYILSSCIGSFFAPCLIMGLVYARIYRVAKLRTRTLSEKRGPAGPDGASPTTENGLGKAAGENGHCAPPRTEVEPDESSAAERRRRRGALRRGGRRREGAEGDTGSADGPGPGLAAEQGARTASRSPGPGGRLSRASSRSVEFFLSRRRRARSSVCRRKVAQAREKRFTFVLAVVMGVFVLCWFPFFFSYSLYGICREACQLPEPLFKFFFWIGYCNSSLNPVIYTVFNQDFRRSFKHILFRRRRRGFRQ

[5] = biological target: T5, 5-hydroxytryptamine receptor 1A (Homo sapiens, UniProt P08908)
T5 sequence (P08908 whole entry): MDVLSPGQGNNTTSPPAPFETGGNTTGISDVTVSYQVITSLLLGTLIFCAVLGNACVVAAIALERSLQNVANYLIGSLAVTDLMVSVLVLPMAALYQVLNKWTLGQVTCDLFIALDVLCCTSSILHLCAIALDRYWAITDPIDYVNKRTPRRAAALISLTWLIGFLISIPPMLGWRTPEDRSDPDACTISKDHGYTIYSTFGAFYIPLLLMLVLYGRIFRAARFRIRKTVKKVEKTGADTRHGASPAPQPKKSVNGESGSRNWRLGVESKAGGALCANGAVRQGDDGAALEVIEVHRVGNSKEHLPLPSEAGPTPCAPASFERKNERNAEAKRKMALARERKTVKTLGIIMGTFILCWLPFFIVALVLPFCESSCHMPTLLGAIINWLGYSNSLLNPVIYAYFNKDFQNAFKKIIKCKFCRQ

Which results are given for `COc1ccccc1N1CCN(CCN(C(=O)C2CCCCC2)c2ccccc2OC)CC1` [Rec 27/0074]?
Ki [1]: 5.13 nM; Ki (D(2) dopamine receptor): 316 nM; Ki [2]: 4.17 nM; Ki [3]: 1.02 nM; Ki [4]: > 10 µM; Ki [5]: 0.89 nM

`O=C(CCCN1CCC2(CC1)C(=O)NCN2c1ccccc1)c1ccc(F)cc1` [8-[4-(4-fluorophenyl)-4-oxidanylidene-butyl]-1-phenyl-1,3,8-triazaspiro[4.5]decan-4-one] was tested. Which Ki [1] did it give?
Its Ki is 20.4 nM.

What about the Ki [2] of the same compound?
Its Ki is 8.32 nM.

Which results are given for `COc1ccccc1N1CCN(CCN(C(=O)C2CCCCC2)c2ccccc2[N+](=O)[O-])CC1` [N-[2-[4-(2-methoxyphenyl)-1-piperazinyl]-ethyl]-N-(2-nitrophenyl)cyclohexanecarboxamide]?
Ki (D(2) dopamine receptor): 871 nM; Ki [4]: > 10 µM

What does the source list for `COc1ccccc1N1CCN(CCN(C(=O)C2CCCCC2)c2ccccn2)CC1`?
Ki (D(2) dopamine receptor): 347 nM; Ki [3]: 661 nM; Ki [4]: 1.26 µM

Which Ki [1] does the source give for `COc1ccc(Br)c(N2CCN(CCN(C(=O)C3CCCCC3)c3ccccc3OC(F)(F)F)CC2)c1` [Rec 27/0224] here?
Its Ki is 224 nM.

What about the Ki (D(2) dopamine receptor) of the same compound?
The Ki was 4790 nM.

What about the Ki [2] of the same compound?
The Ki was 724 nM.

And the Ki [3]?
The Ki was 646 nM.

What about the Ki [4] of the same compound?
Its Ki is over 10 µM.

What about the Ki [5] of the same compound?
Its Ki is 1.05 nM.
